Converted amounts (≈) assume the structure as drawn.

For the experiment, the system named is Ramos. Put plainly: Cytotoxicity against human Ramos B cells after 72 hrs by MTT assay. It counts as functional, cell-based. In general terms: Tetrazolium dyes change colour on reduction, which living cells bring about.
By IC50 is commonly meant the midpoint of a concentration-inhibition curve. A low value points to greater potency in that assay. Turning to `CCCCCCCCCC(=O)O[C@@]12C[C@@H](C)[C@]3(O)[C@@H](C=C(CO)C[C@@]4(O)C(=O)C(C)=C[C@@H]34)[C@@H]1C2(C)C`, the IC50 is 0.0051 µg/mL (≈ 0.0101 µM). In the case of `CC(=O)OCC1=C2[C@H]3O[C@]34CC[C@@H]3C(C)(C)CCC[C@@]3(C)[C@@H]4[C@H]3O[C@@]23OC1=O` [17-ACETOXYJOLKINOLIDE B] it was 0.023 µg/mL (≈ 0.0592 µM); in that of `CC(=O)O[C@@]12C[C@@H](C)[C@@]3(O)[C@@H](C=C(CO)C[C@]4(O)C(=O)C(C)=C[C@@H]34)[C@@H]1C2(C)C` [PROSTRATIN], 0.056 µg/mL (≈ 0.143 µM).

(Values after ChEMBL document CHEMBL1157975, “Diterpenoids from the roots of Euphorbia fischeriana” (J Nat Prod, 2006).)
